Measurements: patent publication US20160102317A1, “PLANTS HAVING INCREASED TOLERANCE TO HERBICIDES” (BASF SE, priority 2013, published 2016)
Values joined by “and” are separate entries in the source; they are usually repeats but may differ in a detail not shown here. Equal values may be shown once.

Legend:
[1] = tested on: Arabidopsis overexpression line AtHPPD (Seq ID: 53) F381I; assay: Arabidopsis growth inhibition in 48-well plates, tolerance factor; format: in vivo, Arabidopsis thaliana; conditions: plant growth IC50 of transgenic / wild-type plants
Experimental: (§1) Arabidopsis thaliana is transformed with HPPD or HST sequences by floral dip method as described by McElver and Singh (WO 2008/124495). Transgenic Arabidopsis plants are subjected to TaqMan analysis for analysis of the number of integration loci.
(§2) Depending on the species, the plants are kept at 10-25° C. or 20-35° C. The test period extends over 3 weeks. During this time, the plants are tended and their response to the individual treatments is evaluated. Herbicide injury evaluations are taken at 2 and 3 weeks after treatment. Plant injury is rated on a scale of 0 to 9, 0 being no injury and 9 being complete death. Tolerance to HPPD-inhibiting herbicides can also be assessed in Arabidopsis. In this case transgenic Arabidopsis thaliana plants are assayed for improved tolerance to HPPD-inhibiting herbicides in 48-well plates. Seeds are surface sterilized by stirring for 5 min in ethanol+water (70+30 by volume), rinsing one time with ethanol+water (70+30 by volume) and two times with a sterile, deionized water. The seeds are resuspended in 0.1% agar dissolved in water (w/v). Four to five seeds per well are plated on solid nutrient medium consisting of half-strength Murashige Skoog nutrient solution, pH 5.8 (Murashige and Skoog (1962) Physiologia Plantarum 15: 473-497). Compounds are dissolved in dimethylsulfoxid (DMSO) and added to the medium prior solidification (final DMSO concentration 0.1%). Multi well plates are incubated in a growth chamber at 22° C., 75% relative humidity and 110 μmol Phot*m-2*s-1 with 14:10 h light:dark photoperiod. Seven to ten days after seeding growth inhibition is evaluated by comparison to wild-type plants. Tolerance factor is calculated by dividing the plant growth IC50 value of transgenic plants containing a HPPD and/or HST sequence by that of wild-type plants.

[2] = tested on: Arabidopsis overexpression line HvHPPD (SEQ ID: 2); assay: as above; format: in vivo, Arabidopsis thaliana; conditions: plant growth IC50 of transgenic / wild-type plants
Experimental: as §1, §2

[3] = tested on: Arabidopsis overexpression line AtHPPD (Seq ID: 53) M335H, P336G, E363Q; assay: as above; format: in vivo, Arabidopsis thaliana; conditions: plant growth IC50 of transgenic / wild-type plants
Experimental: as §1, §2

[4] = tested on: Arabidopsis overexpression line HvHPPD (SEQ ID: 2) L320H, P321A; assay: as above; format: in vivo, Arabidopsis thaliana; conditions: plant growth IC50 of transgenic / wild-type plants
Experimental: as §1, §2

[5] = tested on: Arabidopsis overexpression line Picrophilus HPPD; assay: as above; format: in vivo, Arabidopsis thaliana; conditions: plant growth IC50 of transgenic / wild-type plants
Experimental: as §1, §2

[6] = tested on: Wild-type Arabidopsis plants; assay: as above; format: in vivo, Arabidopsis thaliana; conditions: plant growth IC50 relative to wild-type plants; Wild-type line
Experimental: as §2, with “Compounds are dissolved in dimethylsulfoxid (DMSO) and added to the medium prior solidification (final DMSO concentration 0.1%). Multi well plates are incubated in a growth chamber at 22° C., 75% relative humidity and 110 μmol Phot*m-2*s-1 with 14:10 h light:dark photoperiod.” left out

[7] = tested on: Arabidopsis overexpression line AtHPPD (Seq ID: 53); assay: as above; format: in vivo, Arabidopsis thaliana; conditions: plant growth IC50 of transgenic / wild-type plants
Text: Rows A-F are individual events. Non-transformed control plants are marked as wild-type (WT). The HPPD-inhibiting herbicide used refers to (NE)-8-chloro-N-(4-methoxy-1,2,5-oxadiazol-3-ylidene)-4,4-dimethyl-1,1-dioxo-2,3-dihydrothiochromene-7-carboxamide
as §1
Depending on the species, the plants are kept at 10-25° C. or 20-35° C. The test period extends over 3 weeks. During this time, the plants are tended and their response to the individual treatments is evaluated. Herbicide injury evaluations are taken at 2 and 3 weeks after treatment. Plant injury is rated on a scale of 0 to 9, 0 being no injury and 9 being complete death. Tolerance to HPPD-inhibiting herbicides can also be assessed in Arabidopsis. In this case transgenic Arabidopsis thaliana plants are assayed for improved tolerance to HPPD-inhibiting herbicides in 48-well plates. […] Seven to ten days after seeding growth inhibition is evaluated by comparison to wild-type plants. Tolerance factor is calculated by dividing the plant growth IC50 value of transgenic plants containing a HPPD and/or HST sequence by that of wild-type plants.

[8] = target: T1, Hordeum HPPD (SEQ ID: 2) S252T (Hordeum vulgare, UniProt O48604, A164G/R146V/R147D/R148G/S252T); assay: HPPD activity assay, in vitro characterization of HPPD mutants; format: biochemical; conditions: Table 16, Hordeum wild-type = 1
T1 construct: His (N); made in house; host or cells: E. coli BL21 (DE3)
Experimental: (§3) HPPD produces homogentisic acid and CO2 from 4-hydroxyphenylpyruvate (4-HPP) and 02. The activity assay for HPPD is based on the analysis of homogentisic acid by reversed phase HPLC. The assay mixture can contain 150 mM potassium phosphate buffer pH 7.0, 50 mM L-ascorbic acid, 100 μM Catalase (Sigma-Aldrich), 1 μM FeSO4 and 0.2 units of purified HPPD enzyme in a total volume of 505 μl. 1 unit is defined as the amount of enzyme that is required to produce 1 nmol of HGA per minute at 20° C.
(§4) After a preincubation of 30 min the reaction is started by adding 4-HPP to a final concentration of 0.05 mM. The reaction is allowed to proceed for 45 min at room temperature. The reaction is stopped by the addition of 50 μl of 4.5 M phosphoric acid. The sample is filtered using a […] pore size PVDF filtration device.
(§5) 5 μl of the cleared sample is analyzed on an UPLC HSS T3 column (particle size 1.8 μm, dimensions 2.1×50 mm; Waters) by isocratic elution using 90% 20 mM NaH2PO4 pH 2.2, 10% methanol (v/v).
(§6) HGA is detected electrochemically at 750 mV (mode: DC; polarity: positive) and quantified by integrating peak areas (Empower software; Waters).
(§7) Inhibitors are dissolved in DMSO (dimethylsulfoxide) to a concentration of 0.5 mM. From this stock solution serial five-fold dilutions are prepared in DMSO, which are used in the assay. The respective inhibitor solution accounts for 1% of the assay volume. […] Activities are normalized by setting the uninhibited enzyme activity to 100%. IC50 values are calculated using non-linear regression.
(§8) Purified, mutant HPPD enzymes are obtained by the methods described above. Dose response and kinetic measurements are carried out using the described HPPD activity assay. Apparent michaelis constants (Km) and maximal reaction velocities (Vmax) are calculated by non-linear regression with the software GraphPad Prism 5 (Graph Pad Software, La Jolla, USA) using a substrate inhibition model. […] Weighted means (by standard error) of Km and IC50 values are calculated from at least three independent experiments.
(§9) Field performance of the optimized HPPD enzyme, which is used as a herbicide tolerance trait may depend not only on its lack of sensitivity towards HPPD inhibiting herbicides but also on its activity. To assess the potential performance of a herbicide tolerance trait a tolerance index (TI) is calculated using the following formula: […]
(§10) Easy comparison and ranking of each trait is enabled by normalizing tolerance indexes on Arabidopsis wild-type HPPD.

[9] = target: T2, Hordeum HPPD (SEQ ID: 2) F404L (Hordeum vulgare, UniProt O48604, A164G/F404L/R146V/R147D/R148G); assay: as above; format: biochemical; conditions: Table 16, Hordeum wild-type = 1
T2 construct: His (N); made in house; host or cells: E. coli BL21 (DE3)
Experimental: as §3, §4, §5, §6, §7, §8, §9, §10

[10] = target: T3, Hordeum HPPD (SEQ ID: 2) R309K (Hordeum vulgare, UniProt O48604, A164G/R146V/R147D/R148G/R309K); assay: as above; format: biochemical; conditions: Table 16, Hordeum wild-type = 1
T3 construct: His (N); made in house; host or cells: E. coli BL21 (DE3)
Experimental: as §3, §4, §5, §6, §7, §8, §9, §10

[11] = target: T4, Hordeum HPPD (SEQ ID: 2) L320H (Hordeum vulgare, UniProt O48604, A164G/L320H/R146V/R147D/R148G); assay: as above; format: biochemical; conditions: Table 16, Hordeum wild-type = 1
T4 construct: His (N); made in house; host or cells: E. coli BL21 (DE3)
Experimental: as §3, §4, §5, §6, §7, §8, §9, §10

[12] = target: T5, Hordeum HPPD (SEQ ID: 2) L320H, P321A (Hordeum vulgare, UniProt O48604, L320H/P321A); assay: as above; format: biochemical; conditions: Table 16, Hordeum wild-type = 1
T5 construct: His (N); made in house; host or cells: E. coli BL21 (DE3)
Experimental: as §3, §4, §5, §6, §7, §8, §9, §10

T2 sequence (O48604 whole entry R146V/R147D/R148G/A164G/F404L): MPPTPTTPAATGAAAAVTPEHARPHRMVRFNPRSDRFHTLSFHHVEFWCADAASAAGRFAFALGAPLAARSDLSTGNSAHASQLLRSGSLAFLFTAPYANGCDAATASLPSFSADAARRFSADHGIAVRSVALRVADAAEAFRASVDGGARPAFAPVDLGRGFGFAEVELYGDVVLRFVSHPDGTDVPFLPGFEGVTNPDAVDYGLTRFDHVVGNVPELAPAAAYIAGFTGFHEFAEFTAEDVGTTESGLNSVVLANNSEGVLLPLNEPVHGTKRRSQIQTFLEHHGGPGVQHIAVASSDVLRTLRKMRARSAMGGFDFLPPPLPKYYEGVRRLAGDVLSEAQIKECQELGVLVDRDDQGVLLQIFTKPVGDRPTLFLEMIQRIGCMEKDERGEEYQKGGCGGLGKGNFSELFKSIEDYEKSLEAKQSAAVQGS
T5 sequence (O48604 whole entry R146V/R147D/R148G/A164G/L320H/P321A): as the sequence (O48604 whole entry R146V/R147D/R148G/A164G/F404L) above, with L320H, P321A, L404F counted along it
T3 sequence (O48604 whole entry R146V/R147D/R148G/A164G/R309K): as the sequence (O48604 whole entry R146V/R147D/R148G/A164G/F404L) above, with R309K, L404F counted along it
T1 sequence (O48604 whole entry R146V/R147D/R148G/A164G/S252T): as the sequence (O48604 whole entry R146V/R147D/R148G/A164G/F404L) above, with S252T, L404F counted along it
T4 sequence (O48604 whole entry R146V/R147D/R148G/A164G/L320H): as the sequence (O48604 whole entry R146V/R147D/R148G/A164G/F404L) above, with L320H, L404F counted along it

## COc1no[nH]/c1=N/C(=O)c1ccc2c(c1Cl)S(=O)(=O)CCC2(C)C [Inhibitor 1, (NE)-8-chloro-N-(4-methoxy-1,2,5-oxadiazol-3-ylidene)-4,4-dimethyl-1,1-dioxo-2,3-dihydrothiochromene-7-carboxamide]
[1]
  Tolerance factor towards Inhibitor 1: 37.5
[2]
  Tolerance factor towards Inhibitor 1: 76
[3]
  Tolerance factor towards Inhibitor 1: 15.8
[4]
  Tolerance factor towards Inhibitor 1: 85
[5]
  Tolerance factor towards Inhibitor 1: 4.5
[6]
  Tolerance factor towards Inhibitor 1: 1
[7]
  Tolerance factor towards Inhibitor 1: 6.4
[8]
  TI Inhibitor 1 (normalized tolerance index): 2.4
[9]
  TI Inhibitor 1 (normalized tolerance index): 2.1
[10]
  TI Inhibitor 1 (normalized tolerance index): 0.4
[11]
  TI Inhibitor 1 (normalized tolerance index): 0.6
[12]
  TI Inhibitor 1 (normalized tolerance index): 0.5

## Cc1c(C(=O)Nc2nnnn2C)ccc2c1C(=O)C(C)(C)CS2(=O)=O [Inhibitor 2, 3,3,5-trimethyl-N-(1-methyltetrazol-5-yl)-1,1,4-trioxo-2H-thiochromene-6-carboxamide]
[1]
  Tolerance factor towards Inhibitor 2: 60.8
[2]
  Tolerance factor towards Inhibitor 2: 10.2
[3]
  Tolerance factor towards Inhibitor 2: 60.8
[4]
  Tolerance factor towards Inhibitor 2: 7.9
[5]
  Tolerance factor towards Inhibitor 2: 2.6
[6]
  Tolerance factor towards Inhibitor 2: 1
[7]
  Tolerance factor towards Inhibitor 2: 3
[8]
  TI Inhibitor 2 (normalized tolerance index): 5.9
[9]
  TI Inhibitor 2 (normalized tolerance index): 3 and 3.1
[10]
  TI Inhibitor 2 (normalized tolerance index): 2.8
[11]
  TI Inhibitor 2 (normalized tolerance index): 4.4
[12]
  TI Inhibitor 2 (normalized tolerance index): 3.6
